Laboratory results as given in the supplement of paper PMC10733146.

Columns and labels:
Test in all cases: viability relative to DMSO control (fraction); higher = less drug effect (more viable cells)
Settings in all cases: 48 h
[1] = tested on: primary MCL patient cells (S053)
Procedure, shortened: (§1)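 The cells were primary mononuclear tumour cells, either fresh or cryopreserved, isolated by Ficoll from blood or bone marrow or derived from processed lymph node. Each well of a 384-well plate received 4 × 10^4 cells onto compounds pre-plated at five concentrations, with one well per concentration. The medium was RPMI-1640 with penicillin/streptomycin, L-glutamine and human serum, and plates stood at 37 °C and 5% CO2 for 48 h. Viability is reported as CellTiter-Glo luminescence relative to the median of 16 inner DMSO wells.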

[2] = tested on: primary DLBCL patient cells (S082)
Procedure, shortened: as §1

[3] = tested on: primary T-PLL patient cells (S008)
Procedure, shortened: as §1

[4] = tested on: primary AML patient cells (S009)
Procedure, shortened: as §1

[5] = tested on: primary BL patient cells (S005)
Procedure, shortened: as §1

[6] = tested on: primary AML patient cells (S060)
Procedure, shortened: as §1

[7] = tested on: primary FL patient cells (S087)
Procedure, shortened: as §1

[8] = tested on: primary MCL patient cells (S068)
Procedure, shortened: as §1

[9] = tested on: primary ALL patient cells (S088)
Procedure, shortened: as §1

[10] = tested on: primary AML patient cells (S079)
Procedure, shortened: as §1

[11] = tested on: primary MCL patient cells (S063)
Procedure, shortened: as §1

[12] = tested on: primary FL patient cells (S022)
Procedure, shortened: as §1

[13] = tested on: primary B-PLL patient cells (S016)
Procedure, shortened: as §1

[14] = tested on: primary ALL patient cells (S048)
Procedure, shortened: as §1

[15] = tested on: primary CLL patient cells (S031)
Procedure, shortened: as §1

[16] = tested on: primary MCL patient cells (S041)
Procedure, shortened: as §1

[17] = tested on: primary AML patient cells (S072)
Procedure, shortened: as §1

[18] = tested on: primary AML patient cells (S071)
Procedure, shortened: as §1

[19] = tested on: primary AML patient cells (S056)
Procedure, shortened: as §1

Structure (SMILES): Cc1nc(Nc2ncc(C(=O)Nc3c(C)cccc3Cl)s2)cc(N2CCN(CCO)CC2)n1 [Dasatinib]
- viability ([1]; 0.0016 µM): 1.14
- viability ([1]; 0.008 µM): 0.882
- viability ([1]; 0.04 µM): 0.494
- viability ([1]; 0.2 µM): 0.342
- viability ([1]; 1 µM): 0.347
- viability ([2]; 0.0016 µM): 0.966
- viability ([2]; 0.008 µM): 0.847
- viability ([2]; 0.04 µM): 0.643
- viability ([2]; 0.2 µM): 0.298
- viability ([2]; 1 µM): 0.0983
- viability ([3]; 0.0016 µM): 1
- viability ([3]; 0.008 µM): 0.974
- viability ([3]; 0.04 µM): 0.968
- viability ([3]; 0.2 µM): 0.973
- viability ([3]; 1 µM): 0.996
- viability ([4]; 0.0016 µM): 0.987
- viability ([4]; 0.008 µM): 0.965
- viability ([4]; 0.04 µM): 0.993
- viability ([4]; 0.2 µM): 0.972
- viability ([4]; 1 µM): 1
- viability ([5]; 0.0016 µM): 0.917
- viability ([5]; 0.008 µM): 0.807
- viability ([5]; 0.04 µM): 0.788
- viability ([5]; 0.2 µM): 0.7
- viability ([5]; 1 µM): 0.697
- viability ([6]; 0.0016 µM): 1.02
- viability ([6]; 0.008 µM): 1.03
- viability ([6]; 0.04 µM): 0.901
- viability ([6]; 0.2 µM): 0.891
- viability ([6]; 1 µM): 0.638
- viability ([7]; 0.0016 µM): 0.914
- viability ([7]; 0.008 µM): 0.782
- viability ([7]; 0.04 µM): 0.747
- viability ([7]; 0.2 µM): 0.753
- viability ([7]; 1 µM): 0.742
- viability ([8]; 0.0016 µM): 0.912
- viability ([8]; 0.008 µM): 0.671
- viability ([8]; 0.04 µM): 0.4
- viability ([8]; 0.2 µM): 0.341
- viability ([8]; 1 µM): 0.357
- viability ([9]; 0.0016 µM): 0.899
- viability ([9]; 0.008 µM): 0.709
- viability ([9]; 0.04 µM): 0.62
- viability ([9]; 0.2 µM): 0.545
- viability ([9]; 1 µM): 0.631
- viability ([10]; 0.0016 µM): 0.973
- viability ([10]; 0.008 µM): 0.911
- viability ([10]; 0.04 µM): 0.863
- viability ([10]; 0.2 µM): 0.812
- viability ([10]; 1 µM): 1.04
- viability ([11]; 0.0016 µM): 1
- viability ([11]; 0.008 µM): 0.653
- viability ([11]; 0.04 µM): 0.245
- viability ([11]; 0.2 µM): 0.151
- viability ([11]; 1 µM): 0.118
- viability ([12]; 0.0016 µM): 0.931
- viability ([12]; 0.008 µM): 0.857
- viability ([12]; 0.04 µM): 0.841
- viability ([12]; 0.2 µM): 0.773
- viability ([12]; 1 µM): 0.698
- viability ([13]; 0.0016 µM): 0.693
- viability ([13]; 0.008 µM): 0.45
- viability ([13]; 0.04 µM): 0.397
- viability ([13]; 0.2 µM): 0.368
- viability ([13]; 1 µM): 0.445
- viability ([14]; 0.0016 µM): 1.05
- viability ([14]; 0.008 µM): 0.937
- viability ([14]; 0.04 µM): 0.911
- viability ([14]; 0.2 µM): 0.864
- viability ([14]; 1 µM): 0.926
- viability ([15]; 0.0016 µM): 0.944
- viability ([15]; 0.008 µM): 0.609
- viability ([15]; 0.04 µM): 0.393
- viability ([15]; 0.2 µM): 0.325
- viability ([15]; 1 µM): 0.313
- viability ([16]; 0.0016 µM): 0.903
- viability ([16]; 0.008 µM): 0.79
- viability ([16]; 0.04 µM): 0.723
- viability ([16]; 0.2 µM): 0.67
- viability ([16]; 1 µM): 0.6
- viability ([17]; 0.0016 µM): 0.945
- viability ([17]; 0.008 µM): 0.851
- viability ([17]; 0.04 µM): 0.712
- viability ([17]; 0.2 µM): 0.623
- viability ([17]; 1 µM): 0.704
- viability ([18]; 0.0016 µM): 1.04
- viability ([18]; 0.008 µM): 1.05
- viability ([18]; 0.04 µM): 1
- viability ([18]; 0.2 µM): 0.948
- viability ([18]; 1 µM): 0.951
- viability ([19]; 0.0016 µM): 0.859
- viability ([19]; 0.008 µM): 1.03
- viability ([19]; 0.04 µM): 0.748
- viability ([19]; 0.2 µM): 0.63
- viability ([19]; 1 µM): 0.572

Structure (SMILES): CCc1cnn2c(NCc3ccc[n+]([O-])c3)cc(N3CCCC[C@H]3CCO)nc12 [Dinaciclib]
- viability ([1]; 0.0016 µM): 0.881
- viability ([1]; 0.008 µM): 0.534
- viability ([1]; 0.04 µM): 0.755
- viability ([1]; 0.2 µM): 0.9
- viability ([1]; 1 µM): 1.08
- viability ([2]; 0.0016 µM): 0.98
- viability ([2]; 0.008 µM): 0.102
- viability ([2]; 0.04 µM): 0.0294
- viability ([2]; 0.2 µM): 0.0307
- viability ([2]; 1 µM): 0.0332
- viability ([3]; 0.0016 µM): 0.971
- viability ([3]; 0.008 µM): 0.736
- viability ([3]; 0.04 µM): 0.127
- viability ([3]; 0.2 µM): 0.128
- viability ([3]; 1 µM): 0.143
- viability ([4]; 0.0016 µM): 1.06
- viability ([4]; 0.008 µM): 0.189
- viability ([4]; 0.04 µM): 0.0815
- viability ([4]; 0.2 µM): 0.0774
- viability ([4]; 1 µM): 0.0863
- viability ([5]; 0.0016 µM): 0.866
- viability ([5]; 0.008 µM): 0.792
- viability ([5]; 0.04 µM): 0.848
- viability ([5]; 0.2 µM): 0.867
- viability ([5]; 1 µM): 1.01
- viability ([6]; 0.0016 µM): 1.12
- viability ([6]; 0.008 µM): 0.0838
- viability ([6]; 0.04 µM): 0.0221
- viability ([6]; 0.2 µM): 0.0219
- viability ([6]; 1 µM): 0.0206
- viability ([7]; 0.0016 µM): 0.962
- viability ([7]; 0.008 µM): 0.641
- viability ([7]; 0.04 µM): 0.759
- viability ([7]; 0.2 µM): 0.756
- viability ([7]; 1 µM): 0.829
- viability ([8]; 0.0016 µM): 0.678
- viability ([8]; 0.008 µM): 0.0624
- viability ([8]; 0.04 µM): 0.0361
- viability ([8]; 0.2 µM): 0.0363
- viability ([8]; 1 µM): 0.0424
- viability ([9]; 0.0016 µM): 0.644
- viability ([9]; 0.008 µM): 0.0942
- viability ([9]; 0.04 µM): 0.0343
- viability ([9]; 0.2 µM): 0.0308
- viability ([9]; 1 µM): 0.0318
- viability ([10]; 0.0016 µM): 1
- viability ([10]; 0.008 µM): 0.153
- viability ([10]; 0.04 µM): 0.028
- viability ([10]; 0.2 µM): 0.0285
- viability ([10]; 1 µM): 0.0293
- viability ([11]; 0.0016 µM): 1
- viability ([11]; 0.008 µM): 0.0229
- viability ([11]; 0.04 µM): 0.0173
- viability ([11]; 0.2 µM): 0.0173
- viability ([11]; 1 µM): 0.0157
- viability ([12]; 0.0016 µM): 1.01
- viability ([12]; 0.008 µM): 0.227
- viability ([12]; 0.04 µM): 0.195
- viability ([12]; 0.2 µM): 0.216
- viability ([12]; 1 µM): 0.269
- viability ([13]; 0.0016 µM): 1.07
- viability ([13]; 0.008 µM): 0.047
- viability ([13]; 0.04 µM): 0.0409
- viability ([13]; 0.2 µM): 0.0324
- viability ([13]; 1 µM): 0.0324
- viability ([14]; 0.0016 µM): 0.839
- viability ([14]; 0.008 µM): 0.127
- viability ([14]; 0.04 µM): 0.0333
- viability ([14]; 0.2 µM): 0.0246
- viability ([14]; 1 µM): 0.0268
- viability ([15]; 0.0016 µM): 0.744
- viability ([15]; 0.008 µM): 0.0197
- viability ([15]; 0.04 µM): 0.018
- viability ([15]; 0.2 µM): 0.0169
- viability ([15]; 1 µM): 0.0188
- viability ([16]; 0.0016 µM): 0.938
- viability ([16]; 0.008 µM): 0.0691
- viability ([16]; 0.04 µM): 0.0382
- viability ([16]; 0.2 µM): 0.0378
- viability ([16]; 1 µM): 0.0402
- viability ([17]; 0.0016 µM): 0.979
- viability ([17]; 0.008 µM): 0.169
- viability ([17]; 0.04 µM): 0.0691
- viability ([17]; 0.2 µM): 0.0617
- viability ([17]; 1 µM): 0.065
- viability ([18]; 0.0016 µM): 0.966
- viability ([18]; 0.008 µM): 0.105
- viability ([18]; 0.04 µM): 0.107
- viability ([18]; 0.2 µM): 0.0985
- viability ([18]; 1 µM): 0.0952
- viability ([19]; 0.0016 µM): 0.898
- viability ([19]; 0.008 µM): 0.0944
- viability ([19]; 0.04 µM): 0.101
- viability ([19]; 0.2 µM): 0.0868
- viability ([19]; 1 µM): 0.0937
